# Measurements taken from paper PMC5368910 (BMC Pharmacology & Toxicology, 2017).
# Where two headings read alike, the source gives them in different places.
# Key:
# [1] = after the first single oral dose, both SAD and MAD groups
# Protocol: (§1) Randomization was assigned by blinded study personnel and stratified by gender to achieve an equal number of male and female subjects in each cohort. Subjects aged 18–49 years and 50–75 years were equally distributed in each dosing cohort.
# (§2) Any subject receiving at least one full dose of the study drug was included in the PK analysis population. PK analysis during the SAD study was conducted on serial plasma samples collected predose and at 30 min, 1, 2, 4, 6, 8, 12, 24, 48, and 72 h after dosing, and analyzed using a validated liquid chromatography-tandem mass spectrometry (LC/MS/MS) method, with a lower limit of quantification (LLOQ) of 1 ng/mL. […] The samples were analyzed using an API 5000 triple quadrupole mass spectrometer (Applied Biosystems/ScieEx, Concord, ON, Canada) using electrospray ionization in positive ion mode. Analyst^TM software (version 1.4.2., Applied Biosystems, Foster City, CA, USA) was used for data acquisition. In total, 8 calibration solutions with a range of 1.00 ng/mL to 1000 ng/mL were used as internal standards in addition to a blank. Inter-assay bias was determined to be –2.6 to 2.5% with inter-assay precision of 3.9 to 9.4%.
# (§3) Plasma PK parameters were calculated using standard noncompartmental methods in a validated version of WinNonlin (version 5.2, Pharsight, Mountain View, CA, USA). All concentrations that were below the LLOQ prior to the first detectable concentration were assigned a value of 0. All concentrations that were below the LLOQ after the first quantifiable concentration were designated as missing and replaced with a period. Actual sample collection times were used in the analysis of the concentration versus time profiles for individual subjects. Integration of plasma concentrations versus time was conducted using the linear-up, log-down function in WinNonlin. The following parameters were determined: maximum plasma concentration (Cmax), time of Cmax (Tmax), area under the concentration-time curve (AUC) from 0 to last measurable plasma concentration (AUC0-t), AUC from 0 to infinity (AUC0-∞), percent of dose excreted in the urine, and terminal exponential half-life (t½).
# [2] = MAD, 500 mg BID oral, plasma, LC/MS/MS, LLOQ 1 ng/mL, median (range)
# Protocol: (§4) Subjects were dosed BID, once in the morning and once in the evening, for 14 consecutive days, with at least 8 ounces of water and approximately 1 h after breakfast and 1 h after dinner.
# (§5) During the MAD study, serial plasma samples for PK analysis were collected predose and at 30 min, 3, 6, and 9 h after the morning dose on days 1 and 14, and before the morning dose on days 4, 7, 10, and 12 (trough levels). […] Samples were analyzed using the same bioanalytical LC/MS/MS method as in the SAD study (LLOQ of 1 ng/mL).
# as §3
# [3] = SAD, single oral dose, urine over a 7-day period, LC/MS/MS
# Protocol: Any subject receiving at least one full dose of the study drug was included in the PK analysis population. PK analysis during the SAD study was conducted on serial plasma samples collected predose and at 30 min, 1, 2, 4, 6, 8, 12, 24, 48, and 72 h after dosing, and analyzed using a validated liquid chromatography-tandem mass spectrometry (LC/MS/MS) method, with a lower limit of quantification (LLOQ) of 1 ng/mL. Urine and stool samples were also collected during this period and analyzed using LC/MS/MS. Urine and feces were collected for 7 days after dose administration. The samples were analyzed using an API 5000 triple quadrupole mass spectrometer (Applied Biosystems/ScieEx, Concord, ON, Canada) using electrospray ionization in positive ion mode. […]
# Plasma PK parameters were calculated using standard noncompartmental methods in a validated version of WinNonlin (version 5.2, Pharsight, Mountain View, CA, USA). […] All concentrations that were below the LLOQ after the first quantifiable concentration were designated as missing and replaced with a period. […] The following parameters were determined: maximum plasma concentration (Cmax), time of Cmax (Tmax), area under the concentration-time curve (AUC) from 0 to last measurable plasma concentration (AUC0-t), AUC from 0 to infinity (AUC0-∞), percent of dose excreted in the urine, and terminal exponential half-life (t½).
# [4] = not given; remark: listed apart in the source
# C. difficile = system: C. difficile; parameters: method as in PMID 22183166, PMID 22391542; conditions: cited from earlier work
# [5] = system: initial and relapsing hamster CDAD; parameters: method as in PMID 22802252; conditions: given orally; potency similar to vancomycin; cited from earlier work
# clinical [6] = conditions: both, human, plasma, po
# Protocol: as §1, §2, §3
# clinical [7] = conditions: both, human, plasma, po, MAD, median (range); for AUC(0-t): AUC0–t; for Tmax: LLOQ 1 ng/mL
# Protocol: as §4, §5, §3
# [8] = rats; ref Yin N et al., ICAAC 2010, unpublished data; cited from earlier work
# [9] = dogs; ref Yin N et al., ICAAC 2010, unpublished data; cited from earlier work
# [10] = SAD, of the 32 subjects who received surotomycin
# [11] = MAD, subjects who received surotomycin (n = 24)
# [12] = 250 mg, 250 mg BID oral, day 1, LC/MS/MS, cohort n = 8
# [13] = 1000 mg, 1000 mg BID oral, day 1, LC/MS/MS, cohort n = 8
# 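Wherever Back pain (TEAE) is given: human subjects dosed twice daily for 14 days, safety tracked through day 21 follow-up via reported adverse events, examinations, vital signs, ECG and laboratory tests.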
# 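Wherever Diarrhea (TEAE) is given: single ascending dose cohorts, safety followed through day 8 via observed or reported adverse events, physical exam, vital signs, ECG and laboratory tests, all dosed subjects analysed.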
# 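Wherever General disorders and administration- site conditions (TEAE) is given: human subjects dosed twice daily for 14 days, safety tracked through day 21 follow-up via reported adverse events, examinations, vital signs, ECG and laboratory tests.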
# 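Wherever Headache (TEAE) is given: human subjects dosed twice daily for 14 days, safety tracked through day 21 follow-up via reported adverse events, examinations, vital signs, ECG and laboratory tests.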
# 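Wherever Investigations (TEAE) is given: single ascending dose cohorts, safety followed through day 8 via observed or reported adverse events, physical exam, vital signs, ECG and laboratory tests, all dosed subjects analysed.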
# 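Wherever Musculoskeletal and connective tissue disorders (TEAE) is given: human subjects dosed twice daily for 14 days, safety tracked through day 21 follow-up via reported adverse events, examinations, vital signs, ECG and laboratory tests.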
# 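Wherever Transaminase increased (TEAE) is given: single ascending dose cohorts, safety followed through day 8 via observed or reported adverse events, physical exam, vital signs, ECG and laboratory tests, all dosed subjects analysed.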
# 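Wherever serious AEs is given: single ascending dose cohorts, safety followed through day 8 via observed or reported adverse events, physical exam, vital signs, ECG and laboratory tests, all dosed subjects analysed.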
structure (smiles),measurement,setting,value
CCCCCc1ccc(/C(C)=C/C(=O)N[C@@H](Cc2c[nH]c3ccccc23)C(=O)N[C@H](CC(N)=O)C(=O)N[C@@H](CC(=O)O)C(=O)N[C@@H]2C(=O)NCC(=O)N[C@@H](CCCN)C(=O)N[C@@H](CC(=O)O)C(=O)N[C@H](C)C(=O)N[C@@H](CC(=O)O)C(=O)NCC(=O)N[C@H](CO)C(=O)N[C@@H]([C@H](C)CC(=O)O)C(=O)N[C@@H](CC(=O)c3ccccc3N)C(=O)O[C@@H]2C)cc1 [surotomycin],time of peak median plasma concentration after the first dose,[1],6 to 12 h
same,Tmax,"[2]; day 1, cohort n = 8",6.0 (6.0–9.0) h
same,Tmax,[2]; day 14 morning dose,6.0 (0.0–9.0) h
same,median cumulative amount of the administered dose recovered in the urine,[3],< 0.01%
same,At least one TEAE,SAD 500 mg (n = 8),3 (37.5) n (%)
same,Diarrhea (TEAE),SAD 500 mg (n = 8),1 (12.5) n (%)
same,Gastrointestinal disorders (TEAE),SAD 500 mg (n = 8),2 (25.0) n (%)
same,Infections and infestations (TEAE),SAD 500 mg (n = 8),0 n (%)
same,Investigations (TEAE),SAD 500 mg (n = 8),0 n (%)
same,Transaminase increased (TEAE),SAD 500 mg (n = 8),0 n (%)
same,At least one TEAE,SAD 1000 mg (n = 8),0 n (%)
same,Diarrhea (TEAE),SAD 1000 mg (n = 8),0 n (%)
same,Gastrointestinal disorders (TEAE),SAD 1000 mg (n = 8),0 n (%)
same,Infections and infestations (TEAE),SAD 1000 mg (n = 8),0 n (%)
same,Investigations (TEAE),SAD 1000 mg (n = 8),0 n (%)
same,Transaminase increased (TEAE),SAD 1000 mg (n = 8),0 n (%)
same,At least one TEAE,SAD 2000 mg (n = 8),5 (62.5) n (%)
same,Diarrhea (TEAE),SAD 2000 mg (n = 8),3 (37.5) n (%)
same,Gastrointestinal disorders (TEAE),SAD 2000 mg (n = 8),3 (37.5) n (%)
same,Infections and infestations (TEAE),SAD 2000 mg (n = 8),0 n (%)
same,Investigations (TEAE),SAD 2000 mg (n = 8),1 (12.5) n (%)
same,Transaminase increased (TEAE),SAD 2000 mg (n = 8),1 (12.5) n (%)
same,At least one TEAE,SAD 4000 mg (n = 8),3 (37.5) n (%)
same,Diarrhea (TEAE),SAD 4000 mg (n = 8),1 (12.5) n (%)
same,Gastrointestinal disorders (TEAE),SAD 4000 mg (n = 8),1 (12.5) n (%)
same,Infections and infestations (TEAE),SAD 4000 mg (n = 8),2 (25.0) n (%)
same,Investigations (TEAE),SAD 4000 mg (n = 8),1 (12.5) n (%)
same,Transaminase increased (TEAE),SAD 4000 mg (n = 8),1 (12.5) n (%)
same,serious AEs,"SAD group, none discontinued due to AEs",No serious AEs
same,treatment-related diarrhea,"SAD, all surotomycin subjects (n = 32)",5 (15.6%) n (%)
same,increased transaminases,[10],2 (6.3%) n (%)
same,subjects with AEs assessed as treatment-related,[10],9 (28.1%) n (%)
same,tolerability,"SAD, single oral doses 500, 1000, 2000 or 4000 mg",well tolerated
same,severity of reported AEs,"SAD, single oral doses 500-4000 mg",mild to moderate
same,At least one TEAE,[4]; MAD 250 mg BID (n = 8),4 (50.0) n (%)
same,Back pain (TEAE),[4]; MAD 250 mg BID (n = 8),1 (12.5) n (%)
same,Gastrointestinal disorders (TEAE),[4]; MAD 250 mg BID (n = 8),2 (25.0) n (%)
same,General disorders and administration- site conditions (TEAE),[4]; MAD 250 mg BID (n = 8),0 n (%)
same,Headache (TEAE),[4]; MAD 250 mg BID (n = 8),1 (12.5) n (%)
same,Infections and infestations (TEAE),[4]; MAD 250 mg BID (n = 8),0 n (%)
same,Musculoskeletal and connective tissue disorders (TEAE),[4]; MAD 250 mg BID (n = 8),2 (25.0) n (%)
same,Nervous system disorders (TEAE),[4]; MAD 250 mg BID (n = 8),2 (25.0) n (%)
same,Oropharyngeal pain (TEAE),[4]; MAD 250 mg BID (n = 8),0 n (%)
same,Pruritus (TEAE),[4]; MAD 250 mg BID (n = 8),0 n (%)
same,"Respiratory, thoracic, and mediastinal disorders (TEAE)",[4]; MAD 250 mg BID (n = 8),0 n (%)
same,Skin and subcutaneous tissue disorders (TEAE),[4]; MAD 250 mg BID (n = 8),0 n (%)
same,At least one TEAE,[4]; MAD 500 mg BID (n = 8),6 (75.0) n (%)
same,Back pain (TEAE),[4]; MAD 500 mg BID (n = 8),1 (12.5) n (%)
same,Gastrointestinal disorders (TEAE),[4]; MAD 500 mg BID (n = 8),0 n (%)
same,General disorders and administration- site conditions (TEAE),[4]; MAD 500 mg BID (n = 8),0 n (%)
same,Headache (TEAE),[4]; MAD 500 mg BID (n = 8),1 (12.5) n (%)
same,Infections and infestations (TEAE),[4]; MAD 500 mg BID (n = 8),1 (12.5) n (%)
same,Musculoskeletal and connective tissue disorders (TEAE),[4]; MAD 500 mg BID (n = 8),2 (25.0) n (%)
same,Nervous system disorders (TEAE),[4]; MAD 500 mg BID (n = 8),1 (12.5) n (%)
same,Oropharyngeal pain (TEAE),[4]; MAD 500 mg BID (n = 8),1 (12.5) n (%)
same,Pruritus (TEAE),[4]; MAD 500 mg BID (n = 8),1 (12.5) n (%)
same,"Respiratory, thoracic, and mediastinal disorders (TEAE)",[4]; MAD 500 mg BID (n = 8),2 (25.0) n (%)
same,Skin and subcutaneous tissue disorders (TEAE),[4]; MAD 500 mg BID (n = 8),1 (12.5) n (%)
same,At least one TEAE,[4]; MAD 1000 mg BID (n = 8),5 (62.5) n (%)
same,Back pain (TEAE),[4]; MAD 1000 mg BID (n = 8),0 n (%)
same,Gastrointestinal disorders (TEAE),[4]; MAD 1000 mg BID (n = 8),2 (25.0) n (%)
same,General disorders and administration- site conditions (TEAE),[4]; MAD 1000 mg BID (n = 8),2 (25.0) n (%)
same,Headache (TEAE),[4]; MAD 1000 mg BID (n = 8),0 n (%)
same,Infections and infestations (TEAE),[4]; MAD 1000 mg BID (n = 8),1 (12.5) n (%)
same,Musculoskeletal and connective tissue disorders (TEAE),[4]; MAD 1000 mg BID (n = 8),0 n (%)
same,Nervous system disorders (TEAE),[4]; MAD 1000 mg BID (n = 8),2 (25.0) n (%)
same,Oropharyngeal pain (TEAE),[4]; MAD 1000 mg BID (n = 8),1 (12.5) n (%)
same,Pruritus (TEAE),[4]; MAD 1000 mg BID (n = 8),1 (12.5) n (%)
same,"Respiratory, thoracic, and mediastinal disorders (TEAE)",[4]; MAD 1000 mg BID (n = 8),2 (25.0) n (%)
same,Skin and subcutaneous tissue disorders (TEAE),[4]; MAD 1000 mg BID (n = 8),1 (12.5) n (%)
same,discontinuation due to AEs,"[4]; MAD, 500 mg BID, transient moderate anxiety and mild dyspnea 2 h after the 5th dose",One subject
same,tolerability,"[4]; MAD, 250, 500, 1000 mg BID",well tolerated
same,severity of reported AEs,"[4]; MAD, 250, 500, 1000 mg BID for 14 days",mild to moderate
same,relation of reported AEs to study drug,"[4]; MAD, all reported AEs",unrelated to the study drug
same,headache,"[4]; MAD, of the 24 subjects who received surotomycin",2 (8.3%) n (%)
same,back pain,[4]; [11],2 (8.3%) n (%)
same,constipation,[4]; [11],2 (8.3%) n (%)
same,oropharyngeal pain,[4]; [11],2 (8.3%) n (%)
same,pruritus,[4]; [11],2 (8.3%) n (%)
same,in vitro potency relative to vancomycin,"C. difficile; against C. difficile, by MIC90",fourfold greater
same,minimum inhibitory concentration at which 90% of the isolates were inhibited [MIC90],"C. difficile; in vitro, C. difficile isolates",0.5 µg/mL
same,efficacy against initial and relapsing hamster CDAD,[5],highly effective
same,AUC(0-inf),clinical [6]; 500 mg,317 ng·h/mL
same,AUC(0-t),clinical [6]; 500 mg,260 ng·h/mL
same,Cmax,clinical [6]; 500 mg,10.5 ng/mL
same,Tmax,clinical [6]; 500 mg,6 h
same,half-life,clinical [6]; 500 mg,1100 min
same,AUC(0-inf),clinical [6]; 1000 mg,702 ng·h/mL
same,AUC(0-t),clinical [6]; 1000 mg,664 ng·h/mL
same,Cmax,clinical [6]; 1000 mg,21.5 ng/mL
same,Tmax,clinical [6]; 1000 mg,10 h
same,half-life,clinical [6]; 1000 mg,1270 min
same,AUC(0-inf),clinical [6]; 2000 mg,2080 ng·h/mL
same,AUC(0-t),clinical [6]; 2000 mg,1860 ng·h/mL
same,Cmax,clinical [6]; 2000 mg,66.6 ng/mL
same,Tmax,clinical [6]; 2000 mg,8 h
same,half-life,clinical [6]; 2000 mg,978 min
same,AUC(0-inf),clinical [6]; 4000 mg,2570 ng·h/mL
same,AUC(0-t),clinical [6]; 4000 mg,2480 ng·h/mL
same,Cmax,clinical [6]; 4000 mg,86.7 ng/mL
same,Tmax,clinical [6]; 4000 mg,12 h
same,half-life,clinical [6]; 4000 mg,888 min
same,AUC(0-t),"clinical [7]; 250 mg, 250 mg BID oral, day 1, 0 to last measurable concentration, cohort n = 8",41.2 ng·h/mL
same,AUC(0-t),"clinical [7]; 250 mg, 250 mg BID oral, day 14, 0 to last measurable concentration",274 ng·h/mL
same,Cmax,clinical [7]; [12],6.8 ng/mL
same,Cmax,"clinical [7]; 250 mg, 250 mg BID oral, day 14, LC/MS/MS",25.5 ng/mL
same,Tmax,clinical [7]; [12],9 h
same,Tmax,"clinical [7]; 250 mg, 250 mg BID oral, day 14 morning dose, LC/MS/MS",4.5 h
same,AUC(0-t),"clinical [7]; 500 mg, 500 mg BID oral, day 1, 0 to last measurable concentration, cohort n = 8",49.4 ng·h/mL
same,AUC(0-t),"clinical [7]; 500 mg, 500 mg BID oral, day 14, 0 to last measurable concentration",313 ng·h/mL
same,Cmax,"clinical [7]; 500 mg, 500 mg BID oral, day 1, LC/MS/MS, cohort n = 8",11 ng/mL
same,Cmax,"clinical [7]; 500 mg, 500 mg BID oral, day 14, LC/MS/MS",37.6 ng/mL
same,AUC(0-t),"clinical [7]; 1000 mg, 1000 mg BID oral, day 1, 0 to last measurable concentration, cohort n = 8",118 ng·h/mL
same,AUC(0-t),"clinical [7]; 1000 mg, 1000 mg BID oral, day 14, 0 to last measurable concentration",771 ng·h/mL
same,Cmax,clinical [7]; [13],21 ng/mL
same,Cmax,"clinical [7]; 1000 mg, 1000 mg BID oral, day 14, LC/MS/MS",93.5 ng/mL
same,Tmax,clinical [7]; [13],7.5 h
same,Tmax,"clinical [7]; 1000 mg, 1000 mg BID oral, day 14 morning dose, LC/MS/MS",1.8 h
same,bioavailability after oral administration,[8],very low
same,intestinal absorption,[8],< 1%
same,intestinal absorption,[9],< 1%
